Reference: patent US20200069691A1, “HETEROCYCLIC COMPOUNDS AS HIV PROTEASE INHIBITORS” (Merck Sharp & Dohme Corp., priority 2016, published 2020)

Target: T1, wild-type HIV-1 protease (Human immunodeficiency virus type 1 group M subtype B, UniProt P04585)
T1 construct: Escherichia coli expressed wild-type HIV-1 protease protein
Assay: Assay for Inhibition of Microbial Expressed HIV Protease (peptide substrate cleavage, LC-MS/MS readout)
Format: biochemical
Details: E. coli expressed wild-type HIV-1 protease, mean of at least two independent experiments, read-out: HIV Pr Enzyme HIV1 PR IC50
How it was run: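 Cleavage of Val-Ser-Gln-Asn-(β-naphthyl)Ala-Pro-Ile-Val (400 μM) by recombinant HIV-1 protease ([…]) ran 1 h at 30 °C after a 30 min room-temperature inhibitor preincubation in 50 mM sodium acetate pH 5.5. Product peak areas by LC-MS/MS gave inhibition; values average at least two independent runs.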

| Compound | IC50 [nM] |
| --- | --- |
| CN1CCN(C(=O)c2cc(CN3C(=N)NC(c4ccc(F)cc4)(c4ccc(F)cc4)C3=O)ccc2C(F)(F)F)CC1=O [Compound 157, 4-{[5-{[4,4-bis(4-fluorophenyl)-2-imino-5-oxoimidazolidin-1-yl]methyl}-2-(trifluoromethyl)phenyl]carbonyl}-1-methylpiperazin-2-one] | 14.1 |
| N=C1N[C@](CCCC(F)(F)F)(c2ccc(F)cc2)C(=O)N1Cc1ccc(C(F)(F)F)c(C(=O)N2Cc3cnc(-c4ccc5cnccc5c4)nc3C2)c1 [Compound 55, (5R)-5-(4-fluorophenyl)-2-imino-3-{3-[(2-isoquinolin-6-yl-5,7-dihydro-6H-pyrrolo[3,4-d]pyrimidin-6-yl)carbonyl]-4-(trifluoromethyl)-benzyl}-5-(4,4,4-trifluorobutyl)-imidazolidin-4-one] | 5.99 |
| N=C1N[C@](CCCC(F)(F)F)(c2ccc(F)cc2)C(=O)N1Cc1ccc(C(F)(F)F)c(C(=O)N2Cc3cnc(-c4cccc(-c5ccn[nH]5)c4)nc3C2)c1 [Compound 40, (5R)-5-(4-fluorophenyl)-2-imino-3-[3-({2-[3-(1H-pyrazol-5-yl)phenyl]-5,7-dihydro-6H-pyrrolo[3,4-d]pyrimidin-6-yl}carbonyl)-4-(trifluoromethyl)benzyl]-5-(4,4,4-trifluorobutyl)imidazolidin-4-one] | 4.13 |
| COc1ccc(CN2C(=N)NC(c3ccccc3)(c3ccccc3)C2=O)cc1C(=O)N1Cc2cccc(F)c2C1 [Compound 372, 3-{3-[(4-fluoro-1,3-dihydro-2H-isoindol-2-yl)carbonyl]-4-methoxybenzyl}-2-imino-5,5-diphenylimidazolidin-4-one] | 6.91 |
| N=C1N[C@](CCC2CC2)(c2ccc(F)cc2)C(=O)N1[C@@H]1CCOc2ccc(C(=O)N3Cc4nccnc4C3)cc21 [Compound 107, (5R)-5-(2-cyclopropylethyl)-3-[(4R)-6-(5,7-dihydro-6H-pyrrolo-[3,4-b]pyrazin-6-ylcarbonyl)-3,4-dihydro-2H-chromen-4-yl]-5-(4-fluorophenyl)-2-iminoimidazolidin-4-one] | 25.9 |
| COC(=O)N1CCN(C(=O)c2ccnc(CN3C(=N)NC(CCC(C)C)(c4ccccc4)C3=O)c2)CC1 (centres unmarked) [Compound 405, methyl 4-[(2-{[2-imino4-(3-methylbutyl)-5-oxo-4-phenylimidazolidin-1-yl]methyl}pyridin-4-yl)carbonyl]piperazine-1-carboxylate] | 81.1 |
| N=C1NC(c2ccccc2)(c2ccccc2)C(=O)N1Cc1cccc(C(=O)N2CCc3cc(C(F)(F)F)ccc3C2)c1 [Compound 336, 2-imino-5,5-diphenyl-3-(3-{[6-(trifluoromethyl)-3,4-dihydroisoquinolin-2(1H)-yl]carbonyl}benzyl) imidazolidin-4-one] | 71 |
| CC(C)CC1(c2ccccc2)NC(=N)N(Cc2cccc(C(=O)N3CCN(c4ncccn4)CC3)c2)C1=O (centres unmarked) [Compound 303, 2-imino-5-(2-methylpropyl)-5-phenyl-3-{3-[(4-pyrimidin-2-ylpiperazin-1-yl)carbonyl]benzyl} imidazolidin-4-one] | 45.9 |
| N=C1N[C@@](c2ccc(F)cc2)(C2CCOCC2)C(=O)N1C1CCCc2ccc(C(=O)N3Cc4nccnc4C3)cc21 (stereo in doubt) [Compound 130, (5R)-3-[(1R)-7-(5,7-dihydro-6H-pyrrolo[3,4-b]pyrazin-6-ylcarbonyl)-1,2,3,4-tetrahydronaphthalen-1-yl]-5-(4-fluorophenyl)-2-imino-5-(tetrahydro-2H-pyran-4-yl)imidazolidin-4-one] | 80.5 |
| N=C1NC(c2ccc(F)cc2)(c2cccc(-c3cccnc3)c2)C(=O)N1Cc1cccc(C(=O)N2Cc3ccccc3C2)c1 (centres unmarked) [Compound 284, 3-[3-(1,3-dihydro-2H-isoindol-2-ylcarbonyl)benzyl]-5-(4-fluorophenyl)-2-imino-5-(3-pyridin-3-ylphenyl)imidazolidin-4-one] | 32.7 |
| N=C1NC(c2ccc(F)cc2)(c2ccc(F)cc2)C(=O)N1Cc1cc(C(=O)N2Cc3nccnc3C2)ccn1 [Compound 402, 3-{[4-(5,7-dihydro-6H-pyrrolo[3,4-b]pyrazin-6-ylcarbonvl)pyridin-2-yl]methyl}-5,5-bis(4-fluorophenyl)-2-iminoimidazolidin-4-one] | 34.2 |
| CC(C)CC1(c2ccccc2)NC(=N)N(Cc2ccc(C(F)(F)F)c(C(=O)N3CCC(F)(F)C3)c2)C1=O (centres unmarked) [Compound 177, 3-{3-[(3,3-difluoropyrrolidin-1-yl)carbonyl]-4-(trifluoromethyl)benzyl}-2-imino-5-(2-methylpropyl)-5-phenylimidazolidin-4-one] | 70.3 |
| N=C1NC(c2ccc(F)cc2)(c2cccc(Br)c2)C(=O)N1Cc1cccc(C(=O)N2Cc3ccccc3C2)c1 (centres unmarked) [Compound 289, 5-(3-bromophenyl)-3-[3-(1,3-dihydro-2H-isoindol-2-ylcarbonyl)benzyl]-5-(4-fluorophenyl)-2-iminoimidazolidin-4-one] | 36.1 |
| CC(C)NC(=O)N1CCN(C(=O)c2cc(F)cc(CN3C(=N)NC(c4ccccc4)(c4ccccc4)C3=O)c2)CC1 [Compound 293, 4-({3-fluoro-5-[(2-imino-5-oxo-4,4-diphenylimidazolidin-1-yl)methyl]phenyl}carbonyl)-N-(1-methylethyl) piperazine-1-carboxamide] | 39.2 |
| CC(C)CC1(c2ccccc2)NC(=N)N(Cc2ccc(Cl)c(C(=O)N3Cc4nccnc4C3)c2)C1=O (centres unmarked) [Compound 365, 3-[4-chloro-3-(5,7-dihydro-6H-pyrrolo[3,4-b]pyrazin-6-ylcarbonyl)benzyl]-2-imino-5-(2-methylpropyl)-5-phenylimidazolidin-4-one] | 4.87 |
| N=C1N[C@](CCC2CC2)(c2ccc(F)cc2)C(=O)N1C(CCc1ccccc1)c1ccc(C(F)(F)F)c(C(=O)N2CCn3c(nnc3C(F)(F)F)C2)c1 (stereo partly drawn) [Compound 37, (5R)-5-(2-cyclopropylethyl)-5-(4-fluorophenyl)-2-imino-3-{3-phenyl-1-[4-(trifluoromethyl)-3-{[3-(trifluoromethyl)-5,6-dihydro-[1,2,4]triazolo[4,3-a]pyrazin-7(8H)-yl]carbonyl}phenyl]propyl} imidazolidin-4-one] | 3.89 |
| COC(=O)N1CCN(C(=O)c2cccc(CN3C(=N)NC(c4ccccc4)(c4ccccc4)C3=O)c2)CC1 [Compound 330, methyl 4-({3-[(2-imino-5-oxo-4.4-diphenylimidazolidin-1-yl)methyl]phenyl}carbonyl) piperazine-1-carboxylate] | 67 |
| CC(C)CCC1(c2ccccc2)NC(=N)N(Cc2ccc(C(F)(F)F)c(C(=O)N3Cc4cncnc4C3)c2)C1=O (centres unmarked) [Compound 152, 3-[3-(5,7-dihydro-6H-pyrrolo[3,4-d]pyrimidin-6-ylcarbonyl)-4-(trifluoromethyl)benzyl]-2-imino-5-(3-methylbutyl)-5-phenylimidazolidin-4-one] | 7.8 |
| COc1ccc(CN2C(=N)NC(c3ccc(Cl)cc3)(c3ccc(Cl)cc3)C2=O)cc1C(=O)N1Cc2nccnc2C1 [Compound 369, 5,5-bis(4-chlorophenyl)-3-[3-(5,7-dihydro-6H-pyrrolo[3,4-b]pyrazin-6-ylcarbonyl)-4-methoxybenzyl]-2-iminoimidazolidin-4-one] | 31.4 |
| CC(C)CC1(c2ccccc2)NC(=N)N(Cc2ccc(Cl)c(C(=O)N3Cc4cccnc4C3)c2)C1=O (centres unmarked) [Compound 366, 3-[4-chloro-3-(5,7-dihydro-6H-pyrrolo[3,4-b]pyridin-6-ylcarbonyl)benzyl]-2-imino-5-(2-methylpropyl)-5-phenylimidazolidin-4-one] | 5.08 |
| N=C1NC(c2ccccc2)(c2ccccc2)C(=O)N1Cc1cccc(C(=O)N2CCn3nc(C(F)(F)F)nc3C2)c1 [Compound 301, 2-imino-5,5-diphenyl-3-(3-{[2-(trifluoromethyl)-5,6-dihydro[1,2,4]triazolo[1,5-a]pyrazin-7(8H)-yl]carbonyl}benzyl) imidazolidin-4-one] | 45.2 |
| CC(C)CC(c1ccc(C(F)(F)F)c(C(=O)N2CCn3c(nnc3C(F)(F)F)C2)c1)N1C(=N)N[C@](C[C@@H]2CCOC2)(c2ccc(F)cc2)C1=O (stereo partly drawn) [Compound 123, (5R)-5-(4-fluorophenyl)-2-imino-3-{3-methyl-1-[4-(trifluoromethyl)-3-{[3-(trifluoromethyl)-5,6-dihydro-[1,2,4]triazolo[4,3-a]pyrazin-7(8H)-yl]carbonyl}phenyl]butyl}-5-[(3R)-tetrahydrofuran-3-ylmethyl]-imidazolidin-4-one] | 55.7 |
| N=C1NC(c2ccc(F)cc2)(c2ccc(F)cc2)C(=O)N1Cc1cccc(C(=O)N2Cc3cc(F)c(F)cc3C2)c1 [Compound 197, 3-{3-[(5,6-difluoro-l,3-dihydro-2H-isoindol-2-yl)carbonyl]benzyl}-5,5-bis(4-fluorophenyl)-2-iminoimidazolidin-4-one] | 5.25 |
| CC(C)CC[C@]1(c2ccccc2)NC(=N)N(C(CC(C)C)c2ccc(C(F)(F)F)c(C(=O)N3Cc4nccnc4C3)c2)C1=O (stereo partly drawn) [Compound 5, (5R)-3-{1-[3-(5,7-dihydro-6H-pyrrolo[3,4-b]pyrazin-6-ylcarbonyl)-4-(trifluoromethyl)-phenyl]-3-methylbutyl}-2-imino-5-(3-methylbutyl)-5-phenylimidazo-lidin-4-one] | 0.26 |
| COC(=O)N1CCN(C(=O)c2cccc(CN3C(=N)NC(CCC(C)C)(c4ccc(F)cc4)C3=O)c2)CC1 (centres unmarked) [Compound 239, methyl 4-[(3-{[4-(4-fluorophenyl)-2-imino-4-(3-methylbutyl)-5-oxoimidazolidin-1-yl]methyl}phenyl)carbonyl] piperazine-1-carboxylate] | 15.1 |
| CC(C)CCC1(c2ccccc2)NC(=N)N(Cc2cccc(C(=O)N3CCN(C)C(=O)C3)c2)C1=O (centres unmarked) [Compound 283, 4-[(3-{[2-imino-4-(3-methylbutyl)-5-oxo-4-phenylimidazolidin-1-yl]methyl}phenyl)carbonyl]-1-methylpiperazin-2-one] | 31.8 |
